Measurements taken from US20100249064A1, “METHODS AND COMPOSITIONS FOR TREATING DISEASES AND CONDITIONS INVOLVING HIGHER MOLECULAR WEIGHT HYALURONAN” (University of Chicago, priority 2007, published 2010).

Key:
CD44 = CD44 expression in mouse lung homogenates (immunoblot); type: in vivo
Protocol: (§1) Animal Preparation and Treatment. Male C57BL/6J, B6129N2, CD44^−/− or caveolin-1^−/− mice (8-10 weeks, Jackson Laboratories, Bar Harbor, Me.) were anesthetized with intraperitoneal ketamine (150 mg/kg) and acetylpromazine (15 mg/kg) before exposure of the right internal jugular vein via neck incision. LPS (2.5 mg/kg) or water (control) were instilled intratracheally. Four hours later, mice receive high MW HA (1.5 mg/kg) or water control through the internal jugular vein. The animals were allowed to recover for 24 hours after LPS before bronchioalveolar lavage protein and cytokine concentration and/or lung immunohistochemistry/immunoblot analysis (Peng et al., 2004).
(§2) Immunoblot analysis of CD44 and Caveolin-1 expression in control, LPS- and HA-treated mouse lung homogenates. CD44 is highly likely to be important in lung disease as CD44−/− mice develop lung fibrosis, inflammatory cell recruitment and accumulation of hyaluronan fragments at sites of lung injury (Teder et al., 2002). […] Caveolin-1 can be differentially regulated in various models of acute lung injury (ALI). Monocrotaline-induced rodent pulmonary hypertension results in a loss of lung EC caveolin-1 expression (Mathew et al., 2004). In contrast, there is no change in pulmonary caveolin-1 expression in lipopolyscaaharide (LPS)-induced sepsis with lung injury (Garrean et al., 2006). […]

C1INH = C1INH expression in EC (immunoblot); type: cell-based, human; conditions: 100 nM HMW-HA
Protocol: Determination of the role of HMW-HA/HABP2/C1INH interactions in regulating angiogenesis in vitro. Human pulmonary EC (Cambrex), grown in EBM-2 complete medium (Cambrex) at 37° C. in a humidified atmosphere of 5% CO2, 95% air, with passages 6-10 used for experimentation will be treated with or without 100 nM HMW-HA and/or 100 nM VEGF in the presence or absence of HABP2 and/or C1INH overexpression vectors (Origene), exogenous purified recombinant HABP2 polyanion binding domain and/or C1INH (Novus Biologicals) and/or siRNA (scramble, HABP2 or C1INH). For HABP2 protease activity determination, media from HABP2 overexpressing EC (see above) was immunoprecipitated with anti-HABP2 antibody-conjugated Sepharose beads (Sigma). The immunobeads were then extensively washed in 50 mM Borate, pH=8.5 and protease activity was measured using the QuantiCleave™ Protease Assay Kit (Pierce). Briefly, the immunobeads were incubated with succinylated casein for one hour followed by development with TNBSA (2,4,6-trinitrobenzene sulfonic acid) and read at 450 nm.

Human pulmonary EC = assay: Atomic Force Microscopy of EC morphology and lipid rafts; type: cell-based; conditions: 100 nM high MW HA
Protocol: Atomic Force Microscopy. The protocols/procedures for AFM analysis of 50 to 100 nm pits (CEM, lipid rafts), EC height and force measurements were previously described in detail (Dvorak, 2003, Reich et al., 2001, Henderson et al., 2004, Milhiet et. al., 2004, Miklaszewska, 2004, Lucius, 2003). EC treated with various siRNAs or treated with MβCD with or without 100 nM high MW HA (0, 15, 30, 60 min.) were fixed in 4% glutaraldehyde and analyzed in tapping mode on a DI multimode AFM (Digital Instruments, Santa Barbara, Calif.) using a V-shaped oxide-sharpened silicon nitride cantilever with an optical scanning speed of ˜1.0 Hz to obtain a surface topology map which was quantitated and spatially defined using Metamorph™ software. For live cells, GFP and GFP-caveolin-1 expressing EC were treated with or without 100 nM high MW HA in a DI Bioscope cell chamber (Digital Instruments, Santa Barbara, Calif.) were exposed to tapping mode AFM with concurrent fluorescence scanning and images were obtained using a C5985 chilled CCD camera (Hamamatsu Photonics Systems, Bridgewater, N.J.).

MARCKS and NHE1 = assay: LPS-induced phosphorylation of MARCKS and NHE1 (immunoprecipitation/immunoblot); type: cell-based, human; conditions: LPS 1 μg/ml, 4 hours, HMW-HA 100 nM or Y-27632 500 nM
caveolin-1 = assay: Caveolin-1 expression in mouse lung homogenates (immunoblot); type: in vivo; conditions: HMW-HA+LPS
Protocol: as §1, §2

hyaluronan [HMW-HA]
LPS-induced CD44 upregulation in mouse lungs (CD44; C57BL/6J mice, LPS challenged followed by HMW-HA): inhibited LPS-induced CD44 upregulation | CD44 expression in mouse lungs (CD44; HMW-HA alone): no effect on CD44 expression | C1INH expression in EC (C1INH): increased the expression of the endogenous inhibitor of HABP2, C1INH | EC morphological changes (AFM) (Human pulmonary EC): caused dramatic morphological changes including increased thickening of EC junctions | total number of lipid raft-like structures (AFM) (Human pulmonary EC): did not change | LPS-induced phosphorylation of MARCKS and NHE1 (MARCKS and NHE1): inhibit LPS-induced phosphorylation of MARCKS and NHE1 | caveolin-1 expression in mouse lungs (caveolin-1): did not significantly alter caveolin-1 expression
